Columns and labels:
[1] = system: A549 cells; test: Viability of A549 proliferant vs quiescent cells; format: cell-based, human; conditions: 24 h
Protocol: Cytotoxicity. MTT Assay and IC50 estimation. The cytotoxicity of 1[C,NH-Cl], 2[C,NMe-Cl], 3[N,NH-Cl]Cl, 4[N,NMe-Cl]Cl, 5[CNH2,NH-Cl]Cl, 6[CNH2,S-Cl]Cl, 7[CO,NH-Cl] and 8[CO,S-Cl] in A2780, A2780cis, SW480 and A549 carcinoma cells was evaluated by the MTT colorimetric assay. Cells were seeded in 96-well plates at 5000 cells per well and incubated at 37 °C, 5% CO2. […] Final DMSO concentration was kept below 0.7% in wells. For a negative control, one sequence of cells was left untreated and for vehicle control, cells treated with DMSO were included. For cell viability experiments preincubating with NAC (N-Acetyl-L-Cysteine), the cells were pre-treated with NAC, 10 mM for 2 h before the incubation with complex 1[C,NH-Cl] for 24 h. Then, the medium was removed from the wells, and 100 µL MTT (5 mg/mL) was added. After an incubation time of 4 h, 100 μL of solubilizing detergent solution (SDS, 10% in HCL 0.01 M) was added and kept in the incubator overnight. Cell growth inhibition was detected by measuring the absorbance of each well at 595 nm using a BioTek Cytation5 microplate reader. Each test was repeated in quadruplicate in three independent experiments for each cell line. The percentage of survival cells was calculated using absorbance measurements compared with control and the IC50 estimation using Graph Pad Prism version 6.01.

[2] = system: caspases 3/7; test: Caspase 3/7 detection (CellEvent); format: cell-based, human; conditions: A549, 16 µM, up to 24 h
Protocol: (§1) Specific assays with 1[C,NH] complex were performed according to manufacturer’s instructions using the following reagents from Molecular Probes (Thermo Fisher Scientific): Measurements of ROS: Dihydroethidium (DHE, D11347) and 2′, 7′-dichlorodihydrofluorescein diacetate (H2DCFDA, D399); detection of caspases 3/7: CellEvent Caspase-3/7 Green Detection Reagent (C10423); Cell viability: Live/Dead Cell Imaging Kit (R37601); Analysis of cytosolic calcium concentration: Fluo3/AM (F23915); Analysis of MMP: Tetramethylrhodamine methyl ester perchlorate (TMRM, T668). RT-qPCR’s assays were performed with the following primers/probes from Thermo Fisher Scientific: DCP1A (Hs00218198-m1), FOSB (Hs00171851-m1), EGR1(Hs0015928-m1), ATF3 (Hs00231069-m1), DDIT3 (Hs00358796-g1), PP1R15A (Hs00169585-m1), CHAC1(Hs00225520-m1), MIR9-1 (Hs04231512-s1), ATP1B2 (Hs00155922-m1), BBC3 (Hs00248075-m1), BCL2L11 (Hs00798019-s1), PMAIP1 (Hs00560402-m1), SKP2 (Hs01021864-m1) and HIST1H1B (Hs00271207-s1). RT-qPCR experiments were performed as described.

[3] = system: A549 cells; test: Mitochondrial membrane potential (TMRM); format: cell-based, human; conditions: 16 µM, TMRM 50 nM
Protocol: as §1

[4] = system: A549 cells; test: Protein synthesis (Click-iT OPP); format: cell-based, human; conditions: 16 µM, 6 h
Protocol: DNA damage was measured using EpiQuik 8-OHdG DNA Damage Quantification Direct Kit (colorimetric) (Fischer, Waltham, MA, USA, P600396); The mitochondrial cytochrome C release was evaluated using the “Millipore’s FlowCellect Cytochrome C Kit (Millipore, FCCH100110)”. Lactate dehydrogenase activity release was measured in the culture medium using Cytotoxicity Detection Kit (Roche Diagnostic, Barcelona, Spain, 11 644 793 001). Protein synthesis was determined using Click-iT Plus O-propargyl-puromycin (OPP) Protein Synthesis Assay Kit (Invitrogen™, Waltham, MA, USA). Measurement of GSH/GSSG was determined with GSH/GSSG-Glo Assay (Promega, V6611). Measurements of OCR and ECAR with Seahorse XFp (Agilent Technologies) were determined using the XFp Cell Mito Stress Test Kit (103010-100) and XFp Glycolysis Stress Test Kit (103017-100). ATP measurement was determined with Cell Titer-Glo Luminescent Cell Viability Assay (Promega, Madison, WI, USA, G7570). Determination of DNA damage using phosphorylated H2AX measurement were performed as previously described. Cardiolipin oxidation using the fluorophore Nonyl Acridine Orange (NAO, Thermo Scientific, A1372) was performed as described. Cell viability was determined by Hoechst inclusion and Propidium iodide (PI) exclusion by standard protocols. TEM analysis were performed as described. […]

[5] = system: cytosolic Ca2+; test: Cytosolic calcium (Fluo3/AM); format: cell-based; conditions: 16 µM, after 4 h of incubation
Protocol: as §1

[6] = Drug uptake by cells (ICP-MS); format: cell-based; conditions: 16 μM, 400,000 cells, 4 h
Protocol: 1[C,NH] reduced the lung tumor burden. Prior the performance of in vivo studies, the drug uptake was determined. The amount of 1[C,NH] entering the cell was estimated after administration of 16 μM of 1[C,NH] to 400,000 cells. The intracellular iridium content was assessed after 4 h by ICP-MS, and the percentage of drug taken up by cells was 1.7%. Then, acute toxicity and bio distribution of 1[C,NH] was studied in healthy mice (BALB/c). […] Antitumor efficacy was studied using an orthotopic model of lung cancer in nude mice (Figure 8B). A549-luc cells (A549 cells marked with luciferase) were used to induce the tumor and 20 days after the injection of cells, we proceeded to the administration of 4 doses (0.9 mg/kg) of 1[C,NH] on alternate days. […] However, we cannot exclude the appearance of toxic effects after repeated administrations over longer periods of time. […] To differentiate the effect of 1[C,NH] on the primary tumor and on the affected nodes, at day 37, the animals were sacrificed, and luciferase activity, as a marker on the presence of tumor cells, was measured. […] Moreover, lung mice were stained with a monoclonal antibody against a human cytokeratin (only A549 tumor cells of human origin were stained) (Figure 8D). […] In addition, other factors influence the efficacy of a drug on the primary tumor and not on the metastasis, cell-cell interactions, matrix in the nodes, etc. […]

Cc1c(C)c(C)[c-](C)c1C.[Cl][Ir]1[c]2ccccc2-c2[nH]c3ccccc3[n+]21 [1[C,NH], [(η^5-Cp*)IrCl(κ^2-N,C-pbim)]]
IC50 ([1]; A549 non-proliferating (quiescent) condition): 17 µM
IC50 ([1]; A549 proliferating condition): 9.5 µM
Caspase 3/7 activity [2]: induced caspase 3/7 activation
Mitochondrial membrane potential (MMP) [3]: quick and deep dissipation of MMP
Inhibition of total protein synthesis [4]: around 60%
Cytosolic Ca2+ [5]: increase in cytosolic Ca^2+
Percentage of drug taken up by cells [6]: 1.7%

From paper PMC9818021, “Targets, Mechanisms and Cytotoxicity of Half-Sandwich Ir(III) Complexes Are Modulated by Structural Modifications on the Benzazole Ancillary Ligand” (Cancers, 2022)
